Experimental data: US6447997B1, “Gene coding for GADD153 as a clinical diagnostic and prognostic in cancer therapy” (Research Development Foundation, priority 1997, dated 2002)

Key:
[1] = Maximum tolerated dose of cDDP in the nude mouse xenograft system; type: in vivo; settings: nude mice, i.p.
Experimental: The various aspects of the invention are also useful for xenografted tumors. Nude mice were inoculated s.c. with human UMSCC10b tumor cells, and then treated with cDDP (0, 10, 15, 30 or 50 mg/kg cDDP i.p.) when the tumors reached 1 ml in volume. FIG. 5a depicts the results obtained when tumors were harvested at 24 h after cDDP treatment. […] The time course of the change in message level in the xenografts was similar to that observed with in vitro exposure of the cells (FIG. 5b). Thus, GADD153 mRNA levels can be increased in vivo by cDDP doses around the maximum tolerated dose in this system (15-20 mg/kg cDDP).

GADD153 mRNA = test: Change in GADD153 mRNA in tumor biopsies of head and neck cancer patients after cDDP-based treatment; type: in vivo, human; settings: 24 h after start of first course
Experimental: The present inventors have also discovered that the prognostic method for clinical response by a tumor to a chemotherapeutic agent can accurately predict a corresponding therapeutic response by a patient even though there exist several sources for potential variation. The relationship between the change in GADD153 mRNA level at 24 h after the start of the first course of treatment with cDDP or cDDP plus radiation therapy and subsequent tumor clinical response to this therapy in 32 patients with stage IV head and neck cancer was examined.
Thirty-two patients with previously untreated stage IV head and neck cancer were treated at the UCSD Cancer Center on a phase I/II experimental protocol. All patients had been considered to have unresectable tumors. All patients received i.a. cDDP (150-200 mg/M^2) and i.v. sodium thiosulfate infusion concurrently. The details of this treatment program have been published elsewhere by the present inventors (17,18), which description is specifically incorporated herein by reference. cDDP was dissolved in 400 ml of 0.9% saline and infused over 3-5 minutes through a microcatheter placed angiographically to selectively encompass the dominant blood supply of the targeted tumor. Simultaneous with the cDDP infusion, sodium thiosulfate was infused i.v. at a dose of 9 g/m^2 dissolved in 300 ml of distilled water over 3 minutes, followed by 12 g/m^2 dissolved in one liter of distilled water over 6 h by continuous infusion to prevent severe nephrotoxicity. Treatment was repeated weekly for a total of 4 doses. […] Tumor response was assessed at 2 months using criteria based on physical examination, repeat computed tomography/magnetic resonance imaging studies, and repeat endoscopy and biopsy. […]
GADD153 message levels were quantified using a modification of the technique reported by Horikoshi et al (20). […] PCR products were separated on a 8 M (6%) acrylamide gel and analyzed using a Molecular Imaging System (BioRad, Hercules, Calif.). […]

[2] = tested on: stage IV head and neck cancer; test: Tumor clinical response of patients to cDDP-based treatment; type: in vivo, human; settings: i.a. cDDP with i.v. sodium thiosulfate, with or without radiation therapy
Experimental: Thirty-two patients with previously untreated stage IV head and neck cancer were treated at the UCSD Cancer Center on a phase I/II experimental protocol. All patients had been considered to have unresectable tumors. All patients received i.a. cDDP (150-200 mg/M^2) and i.v. sodium thiosulfate infusion concurrently. The details of this treatment program have been published elsewhere by the present inventors (17,18), which description is specifically incorporated herein by reference. cDDP was dissolved in 400 ml of 0.9% saline and infused over 3-5 minutes through a microcatheter placed angiographically to selectively encompass the dominant blood supply of the targeted tumor. Simultaneous with the cDDP infusion, sodium thiosulfate was infused i.v. at a dose of 9 g/m^2 dissolved in 300 ml of distilled water over 3 minutes, followed by 12 g/m^2 dissolved in one liter of distilled water over 6 h by continuous infusion to prevent severe nephrotoxicity. Treatment was repeated weekly for a total of 4 doses. In addition, 17 of the 32 patients received radiotherapy in doses of […] (×35 fractions) starting concurrently with the start of cDDP treatment. Needle aspiration or small cutting needle biopsies were obtained just before and at 24 h following the first dose of cDDP. Tumor response was assessed at 2 months using criteria based on physical examination, repeat computed tomography/magnetic resonance imaging studies, and repeat endoscopy and biopsy.

## [NH2][Pt]([NH2])([Cl])[Cl] [cDDP, cisplatin]
[1]
  maximum tolerated dose: 15 to 20 mg/kg
GADD153 mRNA; CR group (17 patients)
  magnitude of increase, above baseline, in GADD153 mRNA, mean (SD): 3.8±2.2 fold
GADD153 mRNA; NR group (7 patients with tumor progression)
  magnitude of increase, above baseline, in GADD153 mRNA, mean (SD): 0.8±0.5 fold
GADD153 mRNA; PR group, all 8 patients
  magnitude of increase, above baseline, in GADD153 mRNA, mean (SD): 1.6±0.9 fold
[2]; assessed at 2 months
  patients who achieved a partial regression (PR): 8 of the 32
  patients who attained a complete regression of the tumor (CR): 17 of the 32
[2]; of 32 patients
  patients who had tumor progression (NR): 7 patients
